What all share (type): cell-based
Assay [1] addresses T1, NPFFR1-chimera (Q37^NtL/I293^6.58S/T307^7.31N) (Homo sapiens, UniProt Q9GZQ6, I293S/Q37L/T307N).
T1 construct: expressed in transfected cells; host or cells: HEK293T
The experiment in a line: GloSensor forskolin-stimulated cAMP assay, NPFFR1 triple mutant (chimera Q37NtL/I2936.58S/T3077.31N). As to conditions: HEK293T, 0.5 μM forskolin, three independent experiments. As to the method: (§1) Figure 4 RF-amide ligand selectivity of NPFFR2 and NPFFR1. (A) Sequence alignment between human NPFFs and RFRPs, the endogenous ligands of NPFFRs, which share PXRF-NH2 motif at their C-terminus (shown in green letters). Key residues at the fifth and sixth positions from the C-terminus, are highlighted in bold. […] (B) The concentration-dependent response of various agonists on NPFFR1 was measured using a forskolin-stimulated cAMP assay. Data points represent the mean values from three independent experiments (each with technical triplicate), with error bars indicating SEM. Raw data were normalized to the vehicle-treated (0%) and 0.5 μM forskolin-treated (100%) responses. (C) Structural comparison between the binding modes of hNPSF to NPFFR2 and GnIH to NPFFR1. An AlphaFold2 prediction model of the GnIH–NPFFR1 complex was generated using the hNPSF–NPFFR2 complex structure as a template. The hydrophobicity of NPFFRs is shown with surface representation, where purple indicates hydrophilic regions and bronze indicates hydrophobic regions. […] (D) The cAMP response to the ligands hNPSF and GnIH was measured for both wild-type NPFFR1 and a mutant form of NPFFR1 using a forskolin-stimulated cAMP assay. […] Symbols represent mean values from three independent experiments, each conducted in technical triplicates, with error bars indicating SEM. Responses were normalized to vehicle-treated controls (0%) and 0.5 μM forskolin-treated controls (100%). Source data are available online for this figure.
To further validate whether these specific residues in NPFFR1 affect ligand selectivity, we generated a triple mutant of NPFFR1, in which residues Q37^Nt, I293^6.58, and T307^7.31 of NPFFR1 were replaced by the corresponding NPFFR2 residues, Leu, Ser, and Asn, respectively (Appendix Fig. S10). […]
HEK293T cells were seeded at a density of 6 × 10^5 cells per well in a six-well cell culture plate (SPL) and co-transfected with expression plasmids encoding GloSensor™ and each NPFFR construct, using 1 µg to 4 µg of DNA per well according to the Lipofectamine™ 2000 Transfection Reagent (Invitrogen) protocol. […] Luminescence signals were measured using a Mithras LB940 instrument (Berthold) with a measurement time of 1 s per well.
Data from the GloSensor^TM cAMP signaling assays were analyzed using GraphPad Prism with a three-parameter logistic model to fit concentration-response curves for both wild-type (WT) and mutant receptors. Mutant expression levels and DNA amounts were adjusted to match WT conditions. ΔpEC50 values were calculated by subtracting the log EC50 of the WT receptor from that of each mutant. […] Statistical significance was assessed using one-way ANOVA, followed by Dunnett’s tests comparisons to the WT receptor. […]
(Cyclic AMP is a second messenger, typically raised through Gs and lowered through Gi signalling.)

Assay [2] has as its target T2, human NPFFR1 (Homo sapiens, UniProt Q9GZQ6).
T2 construct: expressed in transfected cells; host or cells: HEK293T (pcDNA3.1 NPFFR1)
The experiment in a line: GloSensor forskolin-stimulated cAMP assay, NPFFR1 wild-type. Conditions: NPFFR1 wild-type, HEK293T, 0.5 μM forskolin, three independent experiments. As to the method: as §1, with “(A) Sequence alignment between human NPFFs and RFRPs, the endogenous ligands of NPFFRs, which share PXRF-NH2 motif at their C-terminus (shown in green letters).” left out
(§2) HEK293T cells were seeded at a density of 6 × 10^5 cells per well in a six-well cell culture plate (SPL) and co-transfected with expression plasmids encoding GloSensor™ and each NPFFR construct, using 1 µg to 4 µg of DNA per well according to the Lipofectamine™ 2000 Transfection Reagent (Invitrogen) protocol. After 48 h of incubation under standard conditions (37 °C, 5% CO2), the cells were detached using Accutase solution (Sigma-Aldrich) and washed with PBS. The cells were then pelleted by centrifugation, resuspended in CO2-independent medium (Gibco) supplemented with Firefly D-Luciferin (0.5 mg/ml, NanoLight), and distributed into a 96-well white plate (SPL). After a 2-hour incubation, serially diluted ligands and 0.5 μM forskolin were added to each well to detect ligand-induced signaling. Luminescence signals were measured using a Mithras LB940 instrument (Berthold) with a measurement time of 1 s per well.
(§3) Data from the GloSensor^TM cAMP signaling assays were analyzed using GraphPad Prism with a three-parameter logistic model to fit concentration-response curves for both wild-type (WT) and mutant receptors. Mutant expression levels and DNA amounts were adjusted to match WT conditions. ΔpEC50 values were calculated by subtracting the log EC50 of the WT receptor from that of each mutant. Results are presented as mean ± SEM from three independent biological replicates, each performed in duplicate or more. Error bars represent the SEM. Statistical significance was assessed using one-way ANOVA, followed by Dunnett’s tests comparisons to the WT receptor. Significance levels were reported as follows: ns (not significant, P > 0.05); *P < 0.05; **P < 0.01; ***P < 0.001.

For assay [3], the target named is T3, human NPFFR2 (Homo sapiens, UniProt Q9Y5X5).
T3 construct: expressed in transfected cells; host or cells: HEK293T (pcDNA3.1 NPFFR2)
In words: GloSensor forskolin-stimulated cAMP assay, NPFFR2 wild-type. Conditions: HEK293T, 0.5 μM forskolin; for Emax: HEK-293T. The procedure:
Figure 1 Structural analysis and downstream signaling of NPFFR2. (A) The concentration-dependent response of various agonists on NPFFR2 is measured using a forskolin-stimulated cAMP assay. Data points represent mean values from three independent experiments (each with technical triplicate), with error bars indicating SEM (standard error of the mean). Raw data were normalized to the vehicle-treated (0%) and 0.5 μM forskolin-treated (100%) responses. […] (C) The extracellular loop 2 (ECL2, pink) and N-terminus (Nt, blue) of NPFFR2 are depicted using a cartoon model. […] Source data are available online for this figure.
as §2, §3

Setting [4] is: NPFFR2 wild type (50% DNA treated), three independent experiments.

Structures are written as SMILES.

A word on the Emax: it is the greatest response seen or fitted, relative to the assay's reference.

T3 sequence (Q9Y5X5 103-522): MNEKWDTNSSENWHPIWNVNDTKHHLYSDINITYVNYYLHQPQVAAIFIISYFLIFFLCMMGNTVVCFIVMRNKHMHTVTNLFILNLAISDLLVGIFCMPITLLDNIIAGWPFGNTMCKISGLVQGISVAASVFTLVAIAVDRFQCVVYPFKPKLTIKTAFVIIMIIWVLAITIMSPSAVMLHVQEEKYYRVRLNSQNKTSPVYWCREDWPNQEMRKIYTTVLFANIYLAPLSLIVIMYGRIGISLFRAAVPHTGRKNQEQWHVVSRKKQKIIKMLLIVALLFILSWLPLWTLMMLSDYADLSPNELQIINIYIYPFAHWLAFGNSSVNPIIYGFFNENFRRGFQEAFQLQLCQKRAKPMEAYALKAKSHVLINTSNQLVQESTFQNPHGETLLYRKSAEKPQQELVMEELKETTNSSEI
T2 sequence (Q9GZQ6 whole entry): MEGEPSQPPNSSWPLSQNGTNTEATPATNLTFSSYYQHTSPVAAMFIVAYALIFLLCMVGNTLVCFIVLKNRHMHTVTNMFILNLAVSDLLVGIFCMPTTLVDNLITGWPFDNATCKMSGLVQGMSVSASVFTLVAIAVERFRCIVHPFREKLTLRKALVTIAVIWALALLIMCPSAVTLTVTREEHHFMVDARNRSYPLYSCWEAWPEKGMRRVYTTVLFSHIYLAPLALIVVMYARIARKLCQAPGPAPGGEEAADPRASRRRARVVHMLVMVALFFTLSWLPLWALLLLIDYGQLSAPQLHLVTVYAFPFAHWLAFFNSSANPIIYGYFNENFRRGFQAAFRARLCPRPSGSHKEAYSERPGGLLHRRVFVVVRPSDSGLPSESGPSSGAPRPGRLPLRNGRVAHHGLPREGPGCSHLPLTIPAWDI
T1 sequence (Q9GZQ6 whole entry Q37L/I293S/T307N): as the sequence (Q9GZQ6 whole entry) above, with Q37L, I293S, T307N counted along it

`CC(C)C[C@H](NC(=O)[C@H](Cc1ccccc1)NC(=O)[C@H](C)NC(=O)[C@H](CCC(N)=O)NC(=O)[C@@H](N)CO)C(=O)N[C@@H](Cc1ccccc1)C(=O)N[C@@H](CCC(N)=O)C(=O)N1CCC[C@H]1C(=O)N[C@@H](CCC(N)=O)C(=O)N[C@@H](CCCNC(=N)N)C(=O)N[C@@H](Cc1ccccc1)C(N)=O` [hNPSF]: the EC50 in assay [1] was 31.6 nM; in assay [2] (read-out: pEC50 ± SEM (converted)), 79.4 nM; in assay [3] (setting [4]), 6.31 nM; in assay [3] (NPFFR2 wild-type (100% DNA treated for hNPSF), three independent experiments) it was 3.16 nM. For the same compound, the Emax in assay [1] (HEK-293T) is 78 ± 2%; in assay [2] (HEK-293T, read-out: Emax ± SEM) it was 83 ± 1%; in assay [3] (setting [4]) it was 56 ± 2%; in assay [3] (NPFFR2 wild-type (100% DNA treated for hNPSF), mean of three independent experiments ± SEM), 77 ± 3%.

The values are drawn from article PMC12069643, “Structural insights into the selective recognition of RF-amide peptides by neuropeptide FF receptor 2” (EMBO Reports, 2025).
